PMC12377202, “Design, synthesis, and cytotoxic evaluation of quinazoline-based derivatives as VEGER-2 inhibitors: comparative study against EGFR kinase activity, induction of apoptosis, and molecular docking study” (RSC Advances, 2025)

How the values were obtained:
Assay type in all cases: cell-based, human
[1] = system: MCF-7; assay: MTT anti-proliferative assay, MCF-7; conditions: Homo sapiens
[2] = system: HepG-2; assay: MTT anti-proliferative assay, HepG-2; conditions: Homo sapiens
[3] = system: K-562; assay: MTT anti-proliferative assay, K-562; conditions: Homo sapiens, K562
[4] = MTT cytotoxicity against normal cells; conditions: human, HEK-293 cells (normal human embryonic kidney)
[5] = system: HEK-293; assay: MTT cytotoxicity against normal cells

Compound `CNC(=O)c1cc(Oc2ccc(NC(=O)Nc3ccc(Cl)c(C(F)(F)F)c3)cc2)ccn1` [Sorafenib, sorafenib, reference compound] has an IC50 ([1]; MCF7, MTT, MCF-7, read-out: Cytotoxicity against cancer cells IC50 MCF-7) of 128 ± 3.1 nM, a viability at 78 µM ([1]; MCF7, 0.078 umol/ml) of 71.5% and a cytotoxicity at 78 µM ([1]; MCF7, 0.078 umol/ml, read-out: Toxicity %) of 28.5%. The viability ([1]; MCF7, 0.313 umol/ml) was 25.7%, the cytotoxicity at 0.313 µM ([1]; MCF7, 0.313 umol/ml, read-out: Toxicity %) was 74.3% and the viability ([1]; MCF7, 0.625 umol/ml) was 16.1%. For the same compound, the cytotoxicity at 2500 µM ([1]; MCF7, 2.5 umol/ml, read-out: Toxicity %) was 89.1%, the cytotoxicity at 10000 µM ([1]; MCF7, 10 umol/ml, read-out: Toxicity %) was 91.8% and the viability at 78 µM ([2]; HepG2, 0.078 umol/ml) was 51.7%. The cytotoxicity at 0.078 µM ([2]; HepG2, 0.078 umol/ml, read-out: Toxicity %) was 48.3%, the viability at 0.313 µM ([2]; HepG2, 0.313 umol/ml) was 16.5% and the viability at 0.625 µM ([2]; HepG2, 0.625 umol/ml) was 11.1%. It also gave a cytotoxicity at 2500 µM ([2]; HepG2, 2.5 umol/ml, read-out: Toxicity %) of 92.1%, a cytotoxicity at 10000 µM ([2]; HepG2, 10 umol/ml, read-out: Toxicity %) of 93.1% and a viability at 78 µM ([3]; K-562, 0.078 umol/ml) of 38.9%. For the same compound, the cytotoxicity at 78 µM ([3]; K-562, 0.078 umol/ml, read-out: Toxicity %) was 61.1%, the viability at 0.313 µM ([3]; K-562, 0.313 umol/ml) was 12.3% and the viability at 0.625 µM ([3]; K-562, 0.625 umol/ml) was 9.18%. For the same compound, the cytotoxicity at 2500 µM ([3]; K-562, 2.5 umol/ml, read-out: Toxicity %) was 92.1%, the cytotoxicity at 10000 µM ([3]; K-562, 10 umol/ml, read-out: Toxicity %) was 92.9% and the IC50 ([3]; MTT, K-562, read-out: Cytotoxicity against cancer cells IC50 K-562) was 60.6 ± 2.6 nM. The viability at 3 days, 0.078 umol/ml ([4]; HEK-293, 0.078 umol/ml) was 69.4%, the viability at 3 days, 0.156 umol/ml ([4]; HEK-293, 0.156 umol/ml) was 40.8% and the viability at 3 days, 0.313 umol/ml ([4]; HEK-293, 0.313 umol/ml) was 30.9%. For the same compound, the viability at 3 days, 0.625 umol/ml ([4]; HEK-293, 0.625 umol/ml) was 17.6%, the viability at 3 days, 1.25 umol/ml ([4]; HEK-293, 1.25 umol/ml) was 13.1% and the viability at 3 days, 2.5 umol/ml ([4]; HEK-293, 2.5 umol/ml) was 10.3%. The viability at 3 days, 10 umol/ml ([4]; HEK-293, 10 umol/ml) was 6.3%, the viability at 3 days, 50 umol/ml ([4]; HEK-293, 50 umol/ml) was 8.64% and the Toxicity % ([5]; HEK-293, 0.078 umol/ml) was 30.65%. For the same compound, the Toxicity % ([5]; HEK-293, 0.156 umol/ml) was 59.15%, the Toxicity % ([5]; HEK-293, 0.313 umol/ml) was 69.11% and the Toxicity % ([5]; HEK-293, 0.625 umol/ml) was 82.43%. It also gave a Toxicity % ([5]; HEK-293, 1.25 umol/ml) of 86.92%, a Toxicity % ([5]; HEK-293, 2.5 umol/ml) of 89.65% and a Toxicity % ([5]; HEK-293, 10 umol/ml) of 93.7%. The Toxicity % ([5]; HEK-293, 50 umol/ml) was 91.36% and the IC50 ([5]; Homo sapiens, HEK293, raw data, HEK-293) was 131000 nM.
